From US20230130513A1, “Magnetic-Responsive Photosensitizer Nanoplatform and Uses Thereof” (University of Maryland, Baltimore, priority 2021, published 2023)

Legend:
[1] = test system: Human gingival fibroblasts; experiment: Live/dead assay of fibroblast cells; assay type: cell-based; settings: one day incubation; microemulsions 1:1 with medium
Procedure: Human gingival fibroblasts (HGF, ScienCell, San Diego, Calif., USA) were cultured using fibroblast medium (FM) supplemented with 2% fetal bovine serum, 1% fibroblast growth supplement, 100 IU/mL penicillin, and 100 IU/mL streptomycin (18 76). When the viability of the cells was above 90%, the cells were seeded in the wells of a 96-well plate (5,000 cells per well) and incubated for 24 h. In the following day, the medium was removed, and different concentrations of superparamagnetic iron(II) oxide nanoparticles (0.25, 0.5, 1, 1.5, 2, 2.5, and 5 wt. %) nanoparticles with and without 100 μg/mL of TBO photosensitizer were dissolved in the fibroblast medium and incubated in contact with the cells for 24 h. The synthesized microemulsions containing the different concentrations of superparamagnetic iron(II) oxide nanoparticles (0.25, 0.5, 1, 1.5, 2, 2.5, and 5 wt. %) were also tested. All the microemulsions were diluted with the fibroblast medium at a 1:1 ratio. After 24 h of incubation at 37° C. with 5% CO2, the cells were washed with phosphate-buffered saline (PBS), and cell counting Kit-8 (CCK-8, Dojindo, Rockville, Md., USA) was used to evaluate the cell viability. The absorbance was read at 450 nm using a spectrophotometer (SpectraMax M5, Molecular Devices, Sunnyvale, Calif., USA). […]

Density of microemulsion = assay type: physicochemical
S. mutans biofilms = experiment: Live/Dead staining of S. mutans biofilms; assay type: cell-based, Streptococcus mutans; settings: aPDT, no magnetic field
Procedure: After each treatment, the biofilms were washed by placing 200 μL of 0.9% saline inside the well, and then, the 0.9% saline was gently aspirated. Next, another 200 μL of saline was placed inside the well, and the biofilm was gently scraped to remove the biofilm cells (23). Then, the biofilm cells were resuspended with the saline to perform serial dilutions (1:10, 1:100, 1:1000, 1:10 000, and 1:100 000) using BHI agar. The BHI agar plates were incubated for 48 h at 37° C. in a 5% CO2 incubator and then counted using a colony counter. Considering the dilution factor, the CFUs/mL were calculated and estimated to measure the number of colonies per milliliter. Two wells were randomly selected for Live/Dead staining of the biofilms to be washed with 0.9% saline and then stained with the BacLight live/dead kit (Molecular Probes, Eugene, Oreg.).

pH measurement = assay type: physicochemical; settings: room temperature
Procedure: (§1) Three microemulsions were selected for further investigations (1, 2.5, and 5 wt. %). Microemulsions were tested for thermodynamic stability via centrifugation stress at 5,000 rpm for 2 h at 4° C., and freeze-thaw stress consisting of three complete cycles. Each cycle consisted of placing the microemulsion for 24 h at −20° C. followed by another 24 h at 4° C. […] For long-term stability, microemulsions were kept in the dark at room temperature and then examined at 1, 3, and 6 months for physical changes or phase separation (21,22). The pH of the synthesized microemulsions was tested using a digital pH meter (accuracy±5%; Accumet XL25, Thermo Fisher Scientific, Waltham, Mass., USA). Before the pH measurement, the pH meter was calibrated using commercial standard buffer solutions of pH 4, pH 7, and pH 10 at room temperature. For the absorbance evaluation, the upper third of the synthesized microemulsions was investigated over time using ultraviolet-visible optical absorption spectrometry (SpectraMax M5, Molecular Devices, Sunnyvale, Calif., USA). […] The density of each microemulsion was calculated following the equation: […]

[2] = test system: mouse monocyte-macrophage cells; settings: cited from earlier work
S. mutans UA159 biofilms = experiment: Photodynamic treatment against Streptococcus mutans biofilms (CFU); assay type: cell-based; settings: for antibacterial effect of core components on S. mutans biofilm: components alone, diluted to their concentration in the microemulsion (FIG. 5A)
Procedure: Photodynamic Treatment Via MagTBO Against Streptococcus mutans Biofilms S. mutans UA159 obtained from the American Type Culture Collection (ATCC, Manassas, Va., USA) were grown overnight using brain heart infusion (BHI) broth (Sigma-Aldrich, St. Louis, Mo., USA) at 37° C. and 5% CO2 incubator. The optical density of the S. mutans was modified to 1×10^8 colony-forming units (CFU)/mL (OD600=0.9) and diluted 1:20 with BHI broth supplemented with 2% of sucrose (12). 200 μL of the diluted overnight culture was placed inside the wells of a black 96-well plate for 24 h. The media was changed after 24 h and 48 h of biofilm growth was continued. The biofilm was washed with 0.9% saline and irradiated with 100 μg/mL of TBO and MagTBO microemulsions containing 1, 2.5, and 5% of SPIONs with and without magnetic field (neodymium magnet, 0.4 Tesla; pull force=601b5). The TBO or the microemulsions were left for 1 min and then irradiated for 5 minutes to deliver an energy density of 180 J/cm^2 and light intensity of 180 mW. The magnetic field was applied at a 10 mm distance below the biofilm during the entire period of the incubation and irradiation times (FIG. 1C). Untreated wells and wells treated with glycerol, essential oil, and polysorbate 20 were used as controls. After each treatment, the biofilms were washed by placing 200 μL of 0.9% saline inside the well, and then, the 0.9% saline was gently aspirated. Next, another 200 μL of saline was placed inside the well, and the biofilm was gently scraped to remove the biofilm cells (23). Then, the biofilm cells were resuspended with the saline to perform serial dilutions (1:10, 1:100, 1:1000, 1:10 000, and 1:100 000) using BHI agar. The BHI agar plates were incubated for 48 h at 37° C. in a 5% CO2 incubator and then counted using a colony counter. Considering the dilution factor, the CFUs/mL were calculated and estimated to measure the number of colonies per milliliter. Two wells were randomly selected for Live/Dead staining of the biofilms to be washed with 0.9% saline and then stained with the BacLight live/dead kit (Molecular Probes, Eugene, Oreg.).

[3] = test system: Human gingival fibroblasts
Procedure: Human gingival fibroblasts (HGF, ScienCell, San Diego, Calif., USA) were cultured using fibroblast medium (FM) supplemented with 2% fetal bovine serum, 1% fibroblast growth supplement, 100 IU/mL penicillin, and 100 IU/mL streptomycin (18 76). When the viability of the cells was above 90%, the cells were seeded in the wells of a 96-well plate (5,000 cells per well) and incubated for 24 h. In the following day, the medium was removed, and different concentrations of superparamagnetic iron(II) oxide nanoparticles (0.25, 0.5, 1, 1.5, 2, 2.5, and 5 wt. %) nanoparticles with and without 100 μg/mL of TBO photosensitizer were dissolved in the fibroblast medium and incubated in contact with the cells for 24 h. The synthesized microemulsions containing the different concentrations of superparamagnetic iron(II) oxide nanoparticles (0.25, 0.5, 1, 1.5, 2, 2.5, and 5 wt. %) were also tested. All the microemulsions were diluted with the fibroblast medium at a 1:1 ratio. After 24 h of incubation at 37° C. with 5% CO2, the cells were washed with phosphate-buffered saline (PBS), and cell counting Kit-8 (CCK-8, Dojindo, Rockville, Md., USA) was used to evaluate the cell viability. The absorbance was read at 450 nm using a spectrophotometer (SpectraMax M5, Molecular Devices, Sunnyvale, Calif., USA). For the live/dead assay, the fibroblast cells were seeded in the wells of a 24-well plate (40,000 cells per well). The medium was changed daily to allow the viability to be above 90%. Microemulsions containing 5 and 2.5% were added to a fresh culture medium at the ratio of 1:1 and incubated with the cells for one day. Wells treated with TBO alone or with no treatment were used as controls. After one day of incubation, the old medium was removed, cells were washed with PBS, and LIVE/DEAD™ Cell Imaging Kit (Invitrogen, Frederick, Md., USA) was used to stain the cells. The cells were visualized using an inverted epifluorescence microscope (Eclipse TE2000-S, Nikon, Melville, N.Y., USA).

[4] = test system: saliva-derived multispecies biofilms; experiment: Photodynamic treatment against saliva-derived biofilms (CFU); assay type: cell-based; settings: 7-day biofilm on dentin slabs, aPDT, no magnetic field, vs control
Procedure: Photodynamic Treatment with MagTBO Against Saliva-Derived Biofilms
Saliva samples were collected from ten healthy individuals with no active carious lesions or history of antibiotics in the last three months. The participants were instructed not to brush their teeth 24 h and not eat or drink two h before the collection. The collected saliva samples were mixed to create a homogenous and complex bacterial composition. The use of saliva as inoculum was approved by the University of Maryland Baltimore Institutional Review Board (HP-00050407). The collected saliva was mixed with glycerol (70:30) and stored at −80° C. This model was used in previous studies to form thick and mature multispecies biofilm (24-26).
Dentin slabs (6×6×1 mm) were used as substrates to grow the biofilm (FIG. 8A). The slabs were prepared from radicular dentin of extracted teeth using a diamond saw with water as coolant (Isomet, Buehler, Lake Bluff, Ill., USA). The collection and the use of extracted teeth were approved by the University of Maryland Baltimore Institutional Review Board. […] The microhardness of the slabs was measured via Vicker's indentation (HMV II, Shimadzu Corporation, Kyoto, Japan) by calculating the average of five different indentations (25 g load for 10 s) per slab (27). […]

[5] = Absorbance change over time (UV-visible spectrometry); assay type: physicochemical
Procedure: as §1

Compound | viable cells in live/dead images [1] | Density (Density of microemulsion) [g/mL] | viable microorganisms in live/dead images (S. mutans biofilms) | pH Measurement (pH measurement) | toxicity against macrophage cells ([2]; 100 μg/mL TBO, previous report (12)) | cytotoxicity against macrophage cell line ([2]; concentrations higher than 100 μg/mL, reported (12)) | reduction against the S. mutans biofilm (CFU) (S. mutans UA159 biofilms; aPDT with light activation 180 J/cm2, no magnetic field, vs control (FIG. 5C)) [log] | antibacterial effect on S. mutans biofilm (S. mutans UA159 biofilms; incubated for 5 min without light activation (FIG. 5B)) | percentage of fibroblast viability ([3]; TBO alone, 100 μg/mL, 24 h) [%] | cytotoxicity against fibroblasts (in words) ([3]; compared to the control) | reduction of multispecies biofilm CFU (total microorganisms, total streptococci, mutans streptococci, total lactobacilli) [4] | Absorbance change (%) ([5]; 1-Month) | Absorbance change (%) ([5]; 3-Month) | Absorbance change (%) ([5]; 6-Month) | antibacterial effect of core components on S. mutans biofilm (S. mutans UA159 biofilms) | cytotoxicity of the microemulsion components (in words) ([3]; added to fibroblast media in a ratio similar to their proportion in the microemulsion)
Cc1cc2nc3ccc(N(C)C)cc3[s+]c2cc1N.[Cl-] [TBO, toluidine blue O] | significantly reduced viability | 1 | significant reduction in the viable microorganisms | 3.19 ± 0.05 | did not induce significant toxicity | critical cytotoxicity | 3 | No antibacterial effect | 33.4 | significant toxicity | around 1 log | No change | No change | No change |  | 
OCC(O)CO [glycerol] |  |  |  |  |  |  |  |  |  |  |  |  |  |  | None of the components were associated with any antibacterial effect | 
polysorbate 20 |  |  |  |  |  |  |  |  |  |  |  |  |  |  | None of the components were associated with any antibacterial effect | significant cytotoxicity
